Results reported in US6537744B1, “Use of biomarkers in saliva to evaluate the toxicity of agents and the function of tissues in both biomedical and environmental applications” (priority 1995, dated 2003).

Columns and labels:
[1] = tested on: acetylcholinesterase in human saliva; test: Inhibition of acetylcholinesterase in human saliva (acetylthiocholine iodide/DTNB, 405 nm); assay type: biochemical; conditions: for % Activity / % Inhibition / Absorb. at 408 nm for 65 min. / Absorb. at 408 nm for 180 min. / nmol/min per mg: 0.6 mL saliva, 30 min preincubation at room temperature
Protocol: The hydrolysis of acetylthiocholine iodide (an analog of acetylcholine iodides) by the saliva enzyme or enzymes is measured by generating the yellow 5-thio-2-nitrobenzoate with an absorbance maximum at 405 nm. The rate of change of absorbance is directly proportional to acetylcholinesterase activity. In this procedure, 0.1-1 mL of saliva (3.261 mg protein/mL) is incubated with 100 μL of acetylthiocholine iodide (0.018M) (lot #10H0653 Sigma) for 30-180 minute at 37° C. in 4.0 mL phosphate buffer (pH 7.8). After the incubation, a 0.2 mL of DTNB is added and the sample is read at 405 nm. The enzyme activity is calculated from glutathione standard curve (Table 9 and FIG. 9). Values for AChE activity in human saliva and enzyme kinetics are presented in Tables 10-14 and show in FIG. 10 through FIG. 14.
The AChE specific activity in saliva is about 4 nmol minute^−1 per mL of saliva. […] The percent of enzyme inhibition by organophosphate is calculated and presented in Tables 13-14 and showing in FIG. 15.

[2] = tested on: carboxylase in human saliva; test: Inhibition of carboxylase in human saliva (p-nitrophenylvalerate hydrolysis, 400 nm); assay type: biochemical
Protocol: The carboxylase activity in saliva samples is monitored by the hydrolysis of p-nitrophenylvalerate to the readily detectable p-nitrophenol. The concentration of p-nitrophenol in the sample is measured spectrophotometrically at 400 nm, and the value is calculated from p-nitrophenol standard curve (Table 3 and FIG. 4). Values for carboxylase activity in saliva (nmol. min-1 per mL of saliva) are presented in Tables 4-8 and showing in FIG. 5 and FIG. 6. The average specific activity for carboxylase in human saliva is about 47 nmol min^−1 per mL.
The assay for carboxylase consists of 4 mL of tris-HCl buffer (pH 7.0) that contain 25 μL of p-nitrophenylvalerate (13.8 mg/mL of alcohol) and 50-500 μL of human saliva. […] In the inhibition study, the agent is incubated with saliva for about 15-20 minutes before the addition of p-nitrophenylvalerate. Organophosphate concentration is verified by gas chromatography using standard methods as described by Knaak et al. (1993).

[3] = 2 μg of DNIO in 4.0 mL, Test #2, 200 μL saliva, 37° C.
[4] = 1.0 ng/ml, Test #2, 0.2 mL saliva, 15 min preincubation at 37° C., 30 min with substrate
[5] = 2.9 ng/ml, Test #2, 0.2 mL saliva, 15 min preincubation at 37° C., 30 min with substrate
[6] = 8.6 ng/ml, Test #2, 0.2 mL saliva, 15 min preincubation at 37° C., 30 min with substrate
[7] = 26 ng/mL, Test #1, 100 μL saliva, 15 min preincubation at 37° C.
[8] = 52 ng/mL, Test #1, 100 μL saliva, 15 min preincubation at 37° C.
[9] = 78 ng/mL, Test #1, 100 μL saliva, 15 min preincubation at 37° C.
[10] = 156 ng/mL, Test #1, 100 μL saliva, 15 min preincubation at 37° C.
[11] = 312 ng/mL, Test #1, 100 μL saliva, 15 min preincubation at 37° C.
[12] = 625 ng/mL, Test #1, 100 μL saliva, 15 min preincubation at 37° C.
[13] = 175 μg/ml, test #1, 200 μL saliva, 15 min preincubation, 37° C.
[14] = .04 ng/ml, Test #2, 0.2 mL saliva, 15 min preincubation at 37° C., 30 min with substrate
[15] = .1 ng/ml, Test #2, 0.2 mL saliva, 15 min preincubation at 37° C., 30 min with substrate
[16] = .3 ng/ml, Test #2, 0.2 mL saliva, 15 min preincubation at 37° C., 30 min with substrate

CCOP(N)(=O)Oc1ccccc1C(=O)OC(C)C (centres unmarked) [DNIO, des N-Isofenphos-oxon]
% Activity ([1]; 1.0 ng/mL, Test #2): 68% | % Inhibition ([1]; 1.0 ng/mL, Test #2): 32% | Absorb. at 408 nm for 65 min. ([1]; 1.0 ng/mL, Test #2): .17 | Absorb. at 408 nm for 180 min. ([1]; 1.0 ng/mL, Test #2): .21 | nmol/min per mg ([1]; 1.0 ng/mL, Test #2): .29 nmol/min per mg | % Activity ([1]; 2.9 ng/mL, Test #2): 45% | % Inhibition ([1]; 2.9 ng/mL, Test #2): 55% | Absorb. at 408 nm for 65 min. ([1]; 2.9 ng/mL, Test #2): .16 | Absorb. at 408 nm for 180 min. ([1]; 2.9 ng/mL, Test #2): .14 | nmol/min per mg ([1]; 2.9 ng/mL, Test #2): .19 nmol/min per mg | % Activity ([1]; 8.6 ng/mL, Test #2): 26% | % Inhibition ([1]; 8.6 ng/mL, Test #2): 74% | Absorb. at 408 nm for 65 min. ([1]; 8.6 ng/mL, Test #2): .11 | Absorb. at 408 nm for 180 min. ([1]; 8.6 ng/mL, Test #2): .08 | nmol/min per mg ([1]; 8.6 ng/mL, Test #2): .11 nmol/min per mg | % Activity ([1]; 26 ng/mL, Test #2): 19% | % Inhibition ([1]; 26 ng/mL, Test #2): 81% | Absorb. at 408 nm for 65 min. ([1]; 26 ng/mL, Test #2): .11 | Absorb. at 408 nm for 180 min. ([1]; 26 ng/mL, Test #2): .06 | nmol/min per mg ([1]; 26 ng/mL, Test #2): .08 nmol/min per mg | % Activity ([1]; 52 ng/mL, Test #2): 13% | % Inhibition ([1]; 52 ng/mL, Test #2): 87% | Absorb. at 408 nm for 65 min. ([1]; 52 ng/mL, Test #2): .09 | Absorb. at 408 nm for 180 min. ([1]; 52 ng/mL, Test #2): .04 | nmol/min per mg ([1]; 52 ng/mL, Test #2): .05 nmol/min per mg | % Activity ([1]; 78 ng/mL, Test #2): 13% | % Inhibition ([1]; 78 ng/mL, Test #2): 87% | Absorb. at 408 nm for 65 min. ([1]; 78 ng/mL, Test #2): .10 | Absorb. at 408 nm for 180 min. ([1]; 78 ng/mL, Test #2): .04 | nmol/min per mg ([1]; 78 ng/mL, Test #2): .05 nmol/min per mg | % Activity ([1]; 156 ng/mL, Test #2): 13% | % Inhibition ([1]; 156 ng/mL, Test #2): 87% | Absorb. at 408 nm for 65 min. ([1]; 156 ng/mL, Test #2): .10 | Absorb. at 408 nm for 180 min. ([1]; 156 ng/mL, Test #2): .04 | nmol/min per mg ([1]; 156 ng/mL, Test #2): .05 nmol/min per mg | % Activity ([1]; 313 ng/mL, Test #2): 10% | % Inhibition ([1]; 313 ng/mL, Test #2): 90% | Absorb. at 408 nm for 65 min. ([1]; 313 ng/mL, Test #2): .07 | Absorb. at 408 nm for 180 min. ([1]; 313 ng/mL, Test #2): .03 | nmol/min per mg ([1]; 313 ng/mL, Test #2): .04 nmol/min per mg | % Activity ([1]; 625 ng/mL, Test #2): 10% | % Inhibition ([1]; 625 ng/mL, Test #2): 90% | Absorb. at 408 nm for 65 min. ([1]; 625 ng/mL, Test #2): .07 | Absorb. at 408 nm for 180 min. ([1]; 625 ng/mL, Test #2): .03 | nmol/min per mg ([1]; 625 ng/mL, Test #2): .04 nmol/min per mg | Absorb. at 405 nm for 50 min. [1, 3]: .14 | Absorb. at 405 nm for 110 min. [1, 3]: .10 | Absorb. at 405 nm for 165 min. [1, 3]: .11 | Activity ([1]; 2 μg of DNIO in 4.0 mL, Test #2, 200 μL saliva, 37° C. (no inhibitor: 1.14)): .22 nmol/min | % Activity ([1]; .04 ng/mL, Test #2): 94% | % Inhibition ([1]; .04 ng/mL, Test #2): 6% | Absorb. at 408 nm for 65 min. ([1]; .04 ng/mL, Test #2): .17 | Absorb. at 408 nm for 180 min. ([1]; .04 ng/mL, Test #2): .29 | nmol/min per mg ([1]; .04 ng/mL, Test #2): .39 nmol/min per mg | % Activity ([1]; .1 ng/mL, Test #2): 90% | % Inhibition ([1]; .1 ng/mL, Test #2): 10% | Absorb. at 408 nm for 65 min. ([1]; .1 ng/mL, Test #2): .14 | Absorb. at 408 nm for 180 min. ([1]; .1 ng/mL, Test #2): .28 | nmol/min per mg ([1]; .1 ng/mL, Test #2): .37 nmol/min per mg | % Activity ([1]; .3 ng/mL, Test #2): 84% | % Inhibition ([1]; .3 ng/mL, Test #2): 16% | Absorb. at 408 nm for 65 min. ([1]; .3 ng/mL, Test #2): .21 | Absorb. at 408 nm for 180 min. ([1]; .3 ng/mL, Test #2): .26 | nmol/min per mg ([1]; .3 ng/mL, Test #2): .34 nmol/min per mg | Absorb. at 405 nm for 100 min. ([1]; DNIO 4 μg in 4 mL, Test #1, 1.0 mL saliva, pH 7.8): .03 | effective concentration for 50% inhibition EC50 ([1]; acetylcholinesterase, human saliva): 3 ng/mL | inhibition of acetylcholinesterase (in words) ([1]; human saliva): inhibited | concentration that produced 50% inhibition in AChE ([1]; saliva incubated with inhibitor about 15 minutes before substrate): 3 ng per mL | % Activity [2, 4]: 57% | % Inhibition [2, 4]: 43% | Absorb. at 400 nm [2, 4]: .46 | nmol/min per mg protein [2, 4]: 7.46 nmol/min per mg protein | % Activity [2, 5]: 50% | % Inhibition [2, 5]: 50% | Absorb. at 400 nm [2, 5]: .40 | nmol/min per mg protein [2, 5]: 6.55 nmol/min per mg protein | % Activity [2, 6]: 40% | % Inhibition [2, 6]: 60% | Absorb. at 400 nm [2, 6]: .32 | nmol/min per mg protein [2, 6]: 5.24 nmol/min per mg protein | % Activity [2, 7]: 3% | % Inhibition [2, 7]: 97% | Absorb. at 400 nm for 20 min. [2, 7]: .02 | Absorb. at 400 nm for 40 min. [2, 7]: .03 | Absorb. at 400 nm for 80 min [2, 7]: .02 | % Activity [2, 8]: 5% | % Inhibition [2, 8]: 95% | Absorb. at 400 nm for 20 min. [2, 8]: .03 | Absorb. at 400 nm for 40 min. [2, 8]: .03 | Absorb. at 400 nm for 80 min [2, 8]: .03 | % Activity [2, 9]: 3% | % Inhibition [2, 9]: 97% | Absorb. at 400 nm for 20 min. [2, 9]: .02 | Absorb. at 400 nm for 40 min. [2, 9]: .02 | Absorb. at 400 nm for 80 min [2, 9]: .02 | % Activity [2, 10]: 5% | % Inhibition [2, 10]: 95% | Absorb. at 400 nm for 20 min. [2, 10]: .02 | Absorb. at 400 nm for 40 min. [2, 10]: .02 | Absorb. at 400 nm for 80 min [2, 10]: .03 | % Activity [2, 11]: 13% | % Inhibition [2, 11]: 87% | Absorb. at 400 nm for 20 min. [2, 11]: .04 | Absorb. at 400 nm for 40 min. [2, 11]: .06 | Absorb. at 400 nm for 80 min [2, 11]: .08 | % Activity [2, 12]: 16% | % Inhibition [2, 12]: 84% | Absorb. at 400 nm for 20 min. [2, 12]: .05 | Absorb. at 400 nm for 40 min. [2, 12]: .07 | Absorb. at 400 nm for 80 min [2, 12]: .10 | % Act. ([2]; 5 μg/mL, Test #2, 50 μL saliva, 20 min preincubation): 35% | % Inhib. [2, 13]: 92% | Absorb. at 400 nm for 20 min. [2, 13]: .16 | Absorb. at 400 nm for 60 min. [2, 13]: .55 | % Activity [2, 14]: 94% | % Inhibition [2, 14]: 6% | Absorb. at 400 nm [2, 14]: .75 | nmol/min per mg protein [2, 14]: 12.31 nmol/min per mg protein | % Activity [2, 15]: 83% | % Inhibition [2, 15]: 17% | Absorb. at 400 nm [2, 15]: .66 | nmol/min per mg protein [2, 15]: 10.87 nmol/min per mg protein | % Activity [2, 16]: 78% | % Inhibition [2, 16]: 22% | Absorb. at 400 nm [2, 16]: .62 | nmol/min per mg protein [2, 16]: 10.21 nmol/min per mg protein | effective concentration for 50% inhibition EC50 ([2]; carboxylase, human saliva): 3 ng/mL | inhibition of carboxylase (in words) ([2]; human saliva): inhibited
